From patent US12628826B2, “Fungicidal composition” (UPL Corporation Limited, priority 2020, dated 2026) come the findings set out here.

Experiment [1] deals with Aphanomyces euteiches. Kind of experiment: Potted plant trial, field pea, 2× rate of Aphanomyces infection (Example 2). As to conditions: ipconazole 2.5, carboxin 66.7, metalaxyl 6.7 g ai/100 kg, combination 500 ml/100 kg; for Root rot damage: 29 DAP.
Description: The control consisted of seed inoculated with Aphanomyces and used water as the seed treatment. The experiment was performed in a controlled environment growth cabinet.
Culture: A 3-day old culture of Aphanomyces euteiches (3 days is when growth has fully encompassed plate) was used for 5 mm inoculation plug source (each plate received one 5 mm plug and four seeds)×4 reps.
Experimental design: 4 reps of each treatment (including controls), with each replication represented by 5 planted seeds for a total of 20 seeds per treatment were performed. All treatments received inoculum. Each seed is placed in a solitary location of a plant tray/flat that has 50 plugs per flat. One flat contained 2 treatments, separated by 10 plugs (2 rows of 5). Treatments 1 and 6 (controls) shared the same flat. The plug flats were placed in a collection tray that was not perforated and all watering was done with tap water from bottom up.
Culture media: 3 day old cultures of A. euteiches were grown on CYP (corn meal agar+yeast extract+phosphate buffer), amended with wheat leaf sections were transferred to 100 ml sterile distilled water in 250 ml flasks and shaken at 100 rpm in the dark at 23° C. for 18 hours for zoospore production.
Inducing Aphanomyces infection: Zoospores were counted and adjusted to a concentration of 1×10^4 spores, and 5 mls of this suspension was pipetted to the base of each plant on 4 DAP and again on 11 DAP (days after planting). This amounted to 50000 zoospores applied to the base of each plant at each inoculation timing. This was called 2× rate. The experiment was conducted in a growth cabinet at 23° C./22° C., 16 hrs light/8 hours dak.-root washing/rating of root darkening took place at 29 DAP which was 18 days after the second inoculation event or 25 days after the first inoculation event.
Experiment [2] deals with Mycosphaerella pinodes and Ascochyta pinodella. Description: Potted plant trial, pea, stem damage from seed borne root rot / ascochyta blight. As to conditions: ipconazole 2.5, carboxin 66.7, metalaxyl 6.7 g ai/100 kg, combination 500 ml/100 kg.

As for `COCC(=O)N(c1c(C)cccc1C)C(C)C(=O)OC` (stereo not shown) [Metalaxyl], in experiment [1], the Root rot damage is reported as 0.7 bc 0-5 index/scale, the “Plant height (cm)” value was 12.2 cm and the “Seed emergence (%)” value is 80.0%.
As for `CC(C)C1CCC(Cc2ccc(Cl)cc2)C1(O)Cn1cncn1` (stereo not shown) [Ipconazole], in experiment [1], the Root rot damage was 2.2 a 0-5 index/scale, the “Plant height (cm)” value is 12.3 cm and the “Seed emergence (%)” value is 85.0%.
For the compound `CC1=C(C(=O)Nc2ccccc2)SCCO1` [Carboxin], in experiment [1], the Root rot damage is 0.6 bc 0-5 index/scale, the “Plant height (cm)” value was 12.9 cm and the “Seed emergence (%)” value is given as 80.0%. Also, in experiment [2], the Stem damage was found to be 1.8 a 0-3 index/scale.
